Where only a bound is given, the exact number is not on record here.

Results on 36 molecules are retold here after patent publication US10370343B2, “[6,6] Fused bicyclic HDAC8 inhibitors” (FORMA Therapeutics, Inc., priority 2015, dated 2019).

The experiment deals with T1, Full length human recombinant HDAC8 protein (Homo sapiens, UniProt Q9BY41).
T1 construct: Full length human recombinant HDAC8 protein was expressed in baculoviral system; made in house
T1 sequence (Q9BY41 1-377): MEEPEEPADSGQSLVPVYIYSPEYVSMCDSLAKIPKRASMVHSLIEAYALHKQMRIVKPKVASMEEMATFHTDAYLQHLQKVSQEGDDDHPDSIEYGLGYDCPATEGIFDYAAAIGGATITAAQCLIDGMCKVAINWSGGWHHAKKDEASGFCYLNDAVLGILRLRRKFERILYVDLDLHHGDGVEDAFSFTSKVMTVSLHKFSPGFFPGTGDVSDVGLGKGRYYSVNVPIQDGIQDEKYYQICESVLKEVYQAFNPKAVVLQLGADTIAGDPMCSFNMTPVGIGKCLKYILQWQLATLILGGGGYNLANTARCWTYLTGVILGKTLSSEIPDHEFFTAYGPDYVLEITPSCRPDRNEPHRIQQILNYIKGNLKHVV
The experiment can be described thus: In vitro histone deacetylase assay: enzymatic HDAC8 electrophoretic mobility shift assay. Conditions: electrophoretic mobility shift assay; enzyme 1 nM; 2 μM fluorescently labeled peptide substrate RHKK(Ac)-NH2; 25° C.; 12 concentrations; read-out: HDAC8 IC50. The class given is biochemical.

Usually IC50 stands for the concentration at which inhibition is half-maximal. In the case of `O=C(NO)c1ccc2c(c1)N(C(=O)C1CCCCC1)CCO2` [Compound I-114, 4-(cyclohexanecarbonyl)-N-hydroxy-3,4-dihydro-2H-benzo[b][1,4]oxazine-6-carboxamide], the IC50 lay in the range of 100 to 1000 nM.
The value for `COc1ccc(CN2CCOc3ccc(C(=O)NO)cc32)cc1` [Compound I-115, N-hydroxy-4-(4-methoxybenzyl)-3,4-dihydro-2H-benzo[b][1,4]oxazine-6-carboxamide] was 100 to 1000 nM.
The figure for `Cc1ccc(CN2CCOc3ccc(C(=O)NO)cc32)cc1` [Compound I-117, N-hydroxy-4-(4-methylbenzyl)-3,4-dihydro-2H-benzo[b][1,4]oxazine-6-carboxamide] is 100 to 1000 nM; for `O=C(NO)c1ccc2c(c1)N(Cc1ccc(Cl)cc1)CCO2` [Compound I-118, 4-(4-chlorobenzyl)-N-hydroxy-3,4-dihydro-2H-benzo[b][1,4]oxazine-6-carboxamide] it is 25 to 100 nM; for `O=C(NO)c1ccc2c(c1)N(Cc1ccc(C(F)(F)F)cc1)CCO2` [Compound I-119, N-hydroxy-4-(4-(trifluoromethyl)benzyl)-3,4-dihydro-2H-benzo[b][1,4]oxazine-6-carboxamide] it is 25 to 100 nM.
Take `CS(=O)(=O)c1ccc(CN2CCOc3ccc(C(=O)NO)cc32)cc1` [Compound I-120, N-hydroxy-4-(4-(methylsulfonyl)benzyl)-3,4-dihydro-2H-benzo[b][1,4]oxazine-6-carboxamide]: the 50% inhibitory concentration (IC50) lay in the range of 25 to 100 nM.
The figure for `COc1cccc(CN2CCOc3ccc(C(=O)NO)cc32)c1` [Compound I-121, N-hydroxy-4-(3-methoxybenzyl)-3,4-dihydro-2H-benzo[b][1,4]oxazine-6-carboxamide] is 25 to 100 nM; for `Cc1cccc(CN2CCOc3ccc(C(=O)NO)cc32)c1` [Compound I-122, N-hydroxy-4-(3-methylbenzyl)-3,4-dihydro-2H-benzo[b][1,4]oxazine-6-carboxamide] it is 25 to 100 nM; for `O=C(NO)c1ccc2c(c1)N(Cc1cccc(Cl)c1)CCO2` [Compound I-123, 4-(3-chlorobenzyl)-N-hydroxy-3,4-dihydro-2H-benzo[b][1,4]oxazine-6-carboxamide] it is 25 to 100 nM.
The value for `O=C(NO)c1ccc2c(c1)N(Cc1cccc(C(F)(F)F)c1)CCO2` [Compound I-124, N-hydroxy-4-(3-(trifluoromethyl)benzyl)-3,4-dihydro-2H-benzo[b][1,4]oxazine-6-carboxamide] was less than 25 nM; that for `COc1ccccc1CN1CCOc2ccc(C(=O)NO)cc21` [Compound I-126, N-hydroxy-4-(2-methoxybenzyl)-3,4-dihydro-2H-benzo[b][1,4]oxazine-6-carboxamide] was 100 to 1000 nM.
The figure for `Cc1ccccc1CN1CCOc2ccc(C(=O)NO)cc21` [Compound I-127, N-hydroxy-4-(2-methylbenzyl)-3,4-dihydro-2H-benzo[b][1,4]oxazine-6-carboxamide] is 25 to 100 nM.
On to `O=C(NO)c1ccc2c(c1)N(Cc1ccccc1Cl)CCO2` [Compound I-128, 4-(2-chlorobenzyl)-N-hydroxy-3,4-dihydro-2H-benzo[b][1,4]oxazine-6-carboxamide], for which the IC50 was less than 25 nM.
For `O=C(NO)c1ccc2c(c1)N(Cc1ccccc1C(F)(F)F)CCO2` [Compound I-129, N-hydroxy-4-(2-(trifluoromethyl)benzyl)-3,4-dihydro-2H-benzo[b][1,4]oxazine-6-carboxamide], the IC50 lay within 100 to 1000 nM.
The value for `CS(=O)(=O)c1ccccc1CN1CCOc2ccc(C(=O)NO)cc21` [Compound I-130, N-hydroxy-4-(2-(methylsulfonyl)benzyl)-3,4-dihydro-2H-benzo[b][1,4]oxazine-6-carboxamide] was 100 to 1000 nM; that for `O=C(NO)c1ccc2c(c1)N(Cc1ccccc1OC(F)F)CCO2` [Compound I-131, 4-(2-(difluoromethoxy)benzyl)-N-hydroxy-3,4-dihydro-2H-benzo[b][1,4]oxazine-6-carboxamide] was 25 to 100 nM.
The figure for `O=C(NO)c1ccc2c(c1)N(Cc1cccc(OC(F)F)c1)CCO2` [Compound I-132, 4-(3-(difluoromethoxy)benzyl)-N-hydroxy-3,4-dihydro-2H-benzo[b][1,4]oxazine-6-carboxamide] is less than 25 nM; for `O=C(NO)c1ccc2c(c1)N(CC1CCCCC1)CCO2` [Compound I-133, 4-(cyclohexylmethyl)-N-hydroxy-3,4-dihydro-2H-benzo[b][1,4]oxazine-6-carboxamide] it is 25 to 100 nM; for `CS(=O)(=O)c1ccc(CN2CCOc3ccc(C(=O)NO)cc32)c(Cl)c1` [Compound I-134, 4-(2-chloro-4-(methylsulfonyl)benzyl)-N-hydroxy-3,4-dihydro-2H-benzo[b][1,4]oxazine-6-carboxamide] it is less than 25 nM.
The figure for `CC(c1ccccc1Cl)N1CCOc2ccc(C(=O)NO)cc21` (stereo not drawn) [Compound I-136, 4-(1-(2-chlorophenyl)ethyl)-N-hydroxy-3,4-dihydro-2H-benzo[b][1,4]oxazine-6-carboxamide] is 100 to 1000 nM.
Consider `CS(=O)(=O)c1ccc(CN2CCOc3ccc(C(=O)NO)cc32)c(C(F)(F)F)c1` [Compound I-137, N-hydroxy-4-(4-(methylsulfonyl)-2-(trifluoromethyl)benzyl)-3,4-dihydro-2H-benzo[b][1,4]oxazine-6-carboxamide], for which the IC50 lay within 25 to 100 nM.
The figure for `COc1cc(CN2CCOc3ccc(C(=O)NO)cc32)ccc1S(C)(=O)=O` [Compound I-138, N-hydroxy-4-(3-methoxy-4-(methylsulfonyl)benzyl)-3,4-dihydro-2H-benzo[b][1,4]oxazine-6-carboxamide] is 100 to 1000 nM; for `COc1ccc(CN2CCOc3ccc(C(=O)NO)cc32)cc1S(C)(=O)=O` [Compound I-139, N-hydroxy-4-(4-methoxy-3-(methylsulfonyl)benzyl)-3,4-dihydro-2H-benzo[b][1,4]oxazine-6-carboxamide] it is 25 to 100 nM; for `O=C(NO)c1ccc2c(c1)N(C(=O)c1ccccc1)CCO2` [Compound I-140, 4-benzoyl-N-hydroxy-3,4-dihydro-2H-benzo[b][1,4]oxazine-6-carboxamide] it is greater than 1000 nM.
The value for `O=C(NO)c1ccc2c(c1)N(Cc1cccc(C(F)(F)F)c1)C(=O)CO2` [Compound I-144, N-hydroxy-3-oxo-4-(3-(trifluoromethyl)benzyl)-3,4-dihydro-2H-benzo[b][1,4]oxazine-6-carboxamide] was less than 25 nM.
The value for `O=C(NO)c1ccc2c(c1)N(Cc1cccc(OC(F)(F)F)c1)C(=O)CO2` [Compound I-146, N-hydroxy-3-oxo-4-(3-(trifluoromethoxy)benzyl)-3,4-dihydro-2H-benzo[b][1,4]oxazine-6-carboxamide] was less than 25 nM; that for `Cc1ccccc1CN1C(=O)COc2ccc(C(=O)NO)cc21` [Compound I-148, N-hydroxy-4-(2-methylbenzyl)-3-oxo-3,4-dihydro-2H-benzo[b][1,4]oxazine-6-carboxamide] was 100 to 1000 nM.
`CC1Oc2ccc(C(=O)NO)cc2N(Cc2ccccc2)C1=O` (stereo not drawn) [Compound I-153, 4-benzyl-N-hydroxy-2-methyl-3-oxo-3,4-dihydro-2H-benzo[b][1,4]oxazine-6-carboxamide]: the IC50 fell in the range of 25 to 100 nM.
The value for `COc1ccc(CN2c3cc(C(=O)NO)ccc3OCC2C)cc1` (stereo not drawn) [Compound I-155, N-hydroxy-4-(4-methoxybenzyl)-3-methyl-3,4-dihydro-2H-benzo[b][1,4]oxazine-6-carboxamide] was 25 to 100 nM.
The value for `O=C(NO)c1ccc2c(c1)N(C(=O)N1CC3(CCOCC3)c3ccccc31)CCO2` [Compound I-156, N-hydroxy-4-(2′,3′,5′,6′-tetrahydrospiro[indoline-3,4′-pyran]-1-carbonyl)-3,4-dihydro-2H-benzo[b][1,4]oxazine-6-carboxamide] was greater than 1000 nM; that for `COc1ccc(CN2C(=O)C3(CCCCC3)Oc3ccc(C(=O)NO)cc32)cc1` [Compound I-158, N-hydroxy-4-(4-methoxybenzyl)-3-oxo-3,4-dihydrospiro[benzo[b][1,4]oxazine-2,1′-cyclohexane]-6-carboxamide] was 100 to 1000 nM.
The value for `COc1ccc(CN2C(=O)C(C)(C)Oc3ccc(C(=O)NO)cc32)c(Cl)c1` [Compound I-159, 4-(2-chloro-4-methoxybenzyl)-N-hydroxy-2,2-dimethyl-3-oxo-3,4-dihydro-2H-benzo[b][1,4]oxazine-6-carboxamide] was 25 to 100 nM; that for `Cc1ccc(CN2C(=O)COc3ccc(C(=O)NO)cc32)cc1C` [Compound I-219, 4-(3,4-dimethylbenzyl)-N-hydroxy-3-oxo-3,4-dihydro-2H-benzo[b][1,4]oxazine-6-carboxamide] was less than 25 nM; that for `O=C(NO)c1ccc2c(c1)N(Cc1ccccc1-c1ccccc1)C(=O)CO2` [Compound I-257, 4-([1,1′-biphenyl]-2-ylmethyl)-N-hydroxy-3-oxo-3,4-dihydro-2H-benzo[b][1,4]oxazine-6-carboxamide] was 100 to 1000 nM.
As for `O=C(NO)c1ccc2c(c1)N(Cc1nc3ccc(Cl)cc3n1CC1CC1)C(=O)CO2` [Compound I-260, 4-((6-chloro-1-(cyclopropylmethyl)-1H-benzo[d]imidazol-2-yl)methyl)-N-hydroxy-3-oxo-3,4-dihydro-2H-benzo[b][1,4]oxazine-6-carboxamide], the IC50 was 100 to 1000 nM.
The value for `O=C(NO)c1ccc2c(c1)N(Cc1ccccc1SC(F)(F)F)C(=O)CO2` [Compound I-262, N-hydroxy-3-oxo-4-(2-((trifluoromethyl)thio)benzyl)-3,4-dihydro-2H-benzo[b][1,4]oxazine-6-carboxamide] was 25 to 100 nM.
